# Patent publication US7470724B2, “Phosphonate compounds having immuno-modulatory activity” (Gilead Sciences, Inc., priority 2003, dated 2008)
# Experiment: Pro-drug cleavage by human PBMC extracts
# Format: in vitro ADME
# Details: cleavage rate per μg protein; 30 μM substrate, pH 6.5, 37° C., 10-120 minutes; disappearance of pro-drug by HPLC at 260 nm
# Procedure: Fresh human PBMCs were obtained from patients undergoing leukophoresis; cells were shipped in plasma and processed within 26 h of draw. Purification was achieved using the Ficoll-Paque method: PBMC cells were harvested by centrifugation at 1200×g for 5 minutes and washed three times by re-suspension in RBC lysis buffer (155 mM NH4Cl, 0.1 mM EDTA, 10 mM KHCO3). Washed cells were suspended in lysis buffer (0.2×10^9 cells in 1 ml of 10 mM Tris, pH 7.4, 150 mM NaCl, 20 mM CaCl2, 1 mM DTT and 1% NP40) and incubated on ice for 20 minutes. The PBMC crude extract was centrifuged at 1000×g for 30 min to remove unlysed cells and the supernatant at 100,000×g for 1 h. The 100,000×g supernatant (PBMC Extract: P0) was harvested, snap frozen in liquid nitrogen and stored at −70° C.
# Reaction mixtures contained 25 mM MesNa (pH 6.5), 100 mM NaCl, 1 mM DTT, 0.1% NP-40, 30 μM substrate, and varying amounts of enzyme in a final volume of 100 μl. The enzymatic reaction is performed at 37° C. for 10-120 minutes and stopped at 3-4 individual time points by adding 180 μl of ice cold methanol. Samples are incubated @−20° C. for 30 min, and centrifuged 13,000 RPM for 30 min (@ 4° C.). The supernatant is transferred to a 96 well plate and evaporated under vacuum using a speedvac. The precipitate is dissolved in 100 μl of 20 mM CH3COONH4+5% AcCN. The disappearance of pro-drug is measured by HPLC, monitoring at 260 nm. The specific activity of the PBMC Extract against the prodrugs tested is defined as: v (cleavage rate)/μg protein=pmoles/min/μg.
row,SMILES,Human PBMC extract specific activity [pmol/min/µg]
1,CCOC(=O)C(C)NP(=O)(CCC(C)(C)CCn1cnc2c(=O)[nH]c(N)nc21)Oc1ccccc1 (stereo not shown) [Example 130-1],3.48
2,CCOC(=O)C(C)NP(=O)(CCC(C)(C)CCn1cnc2c(=O)[nH]c(N)nc21)N[C@@H](C)C(=O)OCC (stereo partly shown) [Example 130-2],0.65
3,CCOC(=O)C(C)NP(=O)(/C=C/c1ccccc1Cn1cnc2c(=O)[nH]c(N)nc21)Oc1ccccc1 (stereo not shown) [Example 133-1],4.9
4,CCOC(=O)C(C)NP(=O)(/C=C/c1ccccc1Cn1cnc2c(=O)[nH]c(N)nc21)N[C@@H](C)C(=O)OCC (stereo partly shown) [Example 133-2],0.38
